Data published in paper PMC5241706, “Biochemical and Structural Characterization of Selective Allosteric Inhibitors of the Plasmodium falciparum Drug Target, Prolyl-tRNA-synthetase” (ACS Infectious Diseases, 2016).

Tests used:
HsProRS = biological target: T1, HsProRS (Homo sapiens, UniProt P07814); experiment: luciferase ATP depletion assay, counter-screen; type: biochemical; conditions: for inhibition at 0.03 µM: at 0.03 μM (22.50 μM series); for inhibition at 2.5 µM: at 2.50 μM (22.50 μM series); for inhibition at 7.5 µM: at 7.50 μM; for inhibition at 22.5 µM: at 22.50 μM; for inhibition at 1.46 µM: at 1.46 μM (750 μM series); for inhibition at 187.5 µM: at 187.50 μM
T1 construct: made in house
T1 sequence (P07814 1007-1512 limits assumed): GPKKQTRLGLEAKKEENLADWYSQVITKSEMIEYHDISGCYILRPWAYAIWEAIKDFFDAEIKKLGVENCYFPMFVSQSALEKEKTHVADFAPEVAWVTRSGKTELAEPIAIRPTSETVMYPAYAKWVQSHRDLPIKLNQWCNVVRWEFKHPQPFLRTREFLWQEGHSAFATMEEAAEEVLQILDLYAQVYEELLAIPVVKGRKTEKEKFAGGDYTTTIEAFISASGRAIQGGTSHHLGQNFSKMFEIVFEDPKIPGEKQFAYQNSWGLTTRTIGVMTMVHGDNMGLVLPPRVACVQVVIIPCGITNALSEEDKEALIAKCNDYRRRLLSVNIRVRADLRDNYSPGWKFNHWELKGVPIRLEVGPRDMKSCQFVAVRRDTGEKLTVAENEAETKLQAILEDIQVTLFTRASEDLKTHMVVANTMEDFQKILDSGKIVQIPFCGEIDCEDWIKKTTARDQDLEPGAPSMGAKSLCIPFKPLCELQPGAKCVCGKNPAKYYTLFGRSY

PfProRS = biological target: T2, PfProRS (Plasmodium falciparum, UniProt Q8I5R7); experiment: luciferase ATP depletion assay, HTS format; type: biochemical
T2 construct: B2, AA7–746 (minus 6 amino acids, or 99% of the ORF); made in house; host or cells: E. coli BL21(DE3)R3 Rosetta Oxford
T2 sequence (Q8I5R7 7-746): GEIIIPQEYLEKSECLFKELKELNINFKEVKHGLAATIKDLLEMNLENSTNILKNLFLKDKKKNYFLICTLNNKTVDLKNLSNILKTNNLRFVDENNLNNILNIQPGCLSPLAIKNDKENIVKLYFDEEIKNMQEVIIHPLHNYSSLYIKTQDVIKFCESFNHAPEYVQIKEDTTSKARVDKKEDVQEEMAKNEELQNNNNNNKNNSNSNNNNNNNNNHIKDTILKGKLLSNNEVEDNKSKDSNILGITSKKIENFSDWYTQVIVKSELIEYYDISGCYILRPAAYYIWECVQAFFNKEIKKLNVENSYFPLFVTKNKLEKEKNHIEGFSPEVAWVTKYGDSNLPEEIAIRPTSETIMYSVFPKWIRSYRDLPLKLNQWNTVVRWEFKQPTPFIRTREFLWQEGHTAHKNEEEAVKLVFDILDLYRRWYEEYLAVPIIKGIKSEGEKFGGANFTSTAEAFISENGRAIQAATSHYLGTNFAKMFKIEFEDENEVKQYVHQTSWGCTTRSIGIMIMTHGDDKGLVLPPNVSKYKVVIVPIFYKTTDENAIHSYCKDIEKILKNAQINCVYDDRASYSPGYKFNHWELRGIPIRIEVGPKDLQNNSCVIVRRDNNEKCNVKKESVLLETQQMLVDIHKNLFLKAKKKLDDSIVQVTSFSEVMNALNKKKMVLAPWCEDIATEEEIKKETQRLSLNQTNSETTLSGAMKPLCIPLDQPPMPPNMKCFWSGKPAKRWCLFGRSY

[1] = read-out: Percentage inhibition Hs ProRS
[2] = read-out: Percentage inhibition Pf ProRS

O=C(CCn1cncn1)N1CCCC(c2[nH]c3ccccc3c2-c2ccncc2)C1 (stereo not shown) [TCMDC-125377]
inhibition at 0.03 µM (HsProRS; [1]): 0.18% | inhibition at 0.09 µM (HsProRS; [1]): -0.1% | inhibition at 0.28 µM (HsProRS; [1]): -0.22% | inhibition at 0.83 µM (HsProRS; [1]): -0.91% | inhibition at 2.5 µM (HsProRS; [1]): -0.37% | inhibition at 7.5 µM (HsProRS; [1]): 0.2% | inhibition at 22.5 µM (HsProRS; [1]): 0.03% | inhibition at 0.28 µM (PfProRS; [2]): 6.8% | inhibition at 0.03 µM (PfProRS; [2]): 1.17% | inhibition at 0.09 µM (PfProRS; [2]): 2.41% | inhibition at 0.83 µM (PfProRS; [2]): 15.4% | inhibition at 2.5 µM (PfProRS; [2]): 24.7% | inhibition at 7.5 µM (PfProRS; [2]): 33.9% | inhibition at 22.5 µM (PfProRS; [2]): 40.1%

N[C@@H](COc1cccc2c(-c3ccncc3)c(-c3cccc(NC(=O)Nc4ccccc4)c3)nn12)c1ccccc1 [TCMDC-135512]
inhibition at 0.03 µM (HsProRS; [1]): -0.42% | inhibition at 0.09 µM (HsProRS; [1]): 0.03% | inhibition at 0.28 µM (HsProRS; [1]): -0.52% | inhibition at 0.83 µM (HsProRS; [1]): -0.24% | inhibition at 2.5 µM (HsProRS; [1]): -0.12% | inhibition at 7.5 µM (HsProRS; [1]): -0.42% | inhibition at 22.5 µM (HsProRS; [1]): -0.2% | inhibition at 0.28 µM (PfProRS; [2]): 2.37% | inhibition at 0.03 µM (PfProRS; [2]): 1.13% | inhibition at 0.09 µM (PfProRS; [2]): 2.63% | inhibition at 0.83 µM (PfProRS; [2]): 3.62% | inhibition at 2.5 µM (PfProRS; [2]): 11.8% | inhibition at 7.5 µM (PfProRS; [2]): 40.4% | inhibition at 22.5 µM (PfProRS; [2]): 56.8%

CCCCC(N)COc1cccc2c(-c3ccncc3)c(-c3cccc(NC(=O)Nc4ccccc4)c3)nn12 (stereo not shown) [TCMDC-135537]
inhibition at 0.03 µM (HsProRS; [1]): -0.2% | inhibition at 0.09 µM (HsProRS; [1]): -0.49% | inhibition at 0.28 µM (HsProRS; [1]): 0.03% | inhibition at 0.83 µM (HsProRS; [1]): 0.8% | inhibition at 2.5 µM (HsProRS; [1]): 0% | inhibition at 7.5 µM (HsProRS; [1]): 0.28% | inhibition at 22.5 µM (HsProRS; [1]): 0.55% | inhibition at 0.28 µM (PfProRS; [2]): -1.18% | inhibition at 0.03 µM (PfProRS; [2]): -1.72% | inhibition at 0.09 µM (PfProRS; [2]): -1.11% | inhibition at 0.83 µM (PfProRS; [2]): 1.73% | inhibition at 2.5 µM (PfProRS; [2]): 11.7% | inhibition at 7.5 µM (PfProRS; [2]): 39% | inhibition at 22.5 µM (PfProRS; [2]): 84.8%

N#CC(c1ccc(Cl)cc1)c1c(Cl)cc(-n2ncc(=O)[nH]c2=O)cc1Cl (stereo not shown) [diclazuril]
inhibition at 0.49 µM (HsProRS; at 0.49 μM, read-out: Percentage inhibition Hs ProRS): 0.05% | inhibition at 0.98 µM (HsProRS; at 0.98 μM, read-out: Percentage inhibition Hs ProRS): -0.02% | inhibition at 1.95 µM (HsProRS; at 1.95 μM, read-out: Percentage inhibition Hs ProRS): 0.08% | inhibition at 3.91 µM (HsProRS; at 3.91 μM, read-out: Percentage inhibition Hs ProRS): 0.28% | inhibition at 7.81 µM (HsProRS; at 7.81 μM, read-out: Percentage inhibition Hs ProRS): 0.42% | inhibition at 15.63 µM (HsProRS; at 15.63 μM, read-out: Percentage inhibition Hs ProRS): 0.09% | inhibition at 31.25 µM (HsProRS; at 31.25 μM, read-out: Percentage inhibition Hs ProRS): 0.4% | inhibition at 62.5 µM (HsProRS; at 62.50 μM, read-out: Percentage inhibition Hs ProRS): 0.07% | inhibition at 125 µM (HsProRS; at 125 μM, read-out: Percentage inhibition Hs ProRS): 0.68% | inhibition at 250 µM (HsProRS; at 250 μM, read-out: Percentage inhibition Hs ProRS): 5.06% | inhibition at 500 µM (HsProRS; at 500 μM, read-out: Percentage inhibition Hs ProRS): 9.51% | inhibition at 0.49 µM (PfProRS; [2]): 0.21% | inhibition at 0.98 µM (PfProRS; [2]): -1.18% | inhibition at 1.95 µM (PfProRS; [2]): -0.74% | inhibition at 3.91 µM (PfProRS; [2]): -0.59% | inhibition at 7.81 µM (PfProRS; [2]): 2.35% | inhibition at 15.63 µM (PfProRS; [2]): 2.75% | inhibition at 31.25 µM (PfProRS; [2]): 7.77% | inhibition at 62.5 µM (PfProRS; [2]): 19.5% | inhibition at 125 µM (PfProRS; [2]): 43% | inhibition at 250 µM (PfProRS; [2]): 73.7% | inhibition at 500 µM (PfProRS; [2]): 80.2%

Cc1c(Nc2ncccc2C(=O)O)cccc1C(F)(F)F [flunixin meglumine]
inhibition at 0.73 µM (HsProRS; [1]): 0.21% | inhibition at 1.46 µM (HsProRS; [1]): 0.19% | inhibition at 2.93 µM (HsProRS; [1]): 0.2% | inhibition at 5.86 µM (HsProRS; [1]): 0.17% | inhibition at 11.72 µM (HsProRS; [1]): 0.37% | inhibition at 23.44 µM (HsProRS; [1]): 0.52% | inhibition at 46.88 µM (HsProRS; [1]): 0.27% | inhibition at 93.75 µM (HsProRS; [1]): -0.02% | inhibition at 187.5 µM (HsProRS; [1]): 0.03% | inhibition at 375 µM (HsProRS; [1]): 0.43% | inhibition at 750 µM (HsProRS; [1]): 1.37% | inhibition at 0.73 µM (PfProRS; [2]): 0.6% | inhibition at 1.46 µM (PfProRS; [2]): -0.28% | inhibition at 2.93 µM (PfProRS; [2]): -0.7% | inhibition at 5.86 µM (PfProRS; [2]): -0.41% | inhibition at 11.72 µM (PfProRS; [2]): 1.63% | inhibition at 23.44 µM (PfProRS; [2]): 2.17% | inhibition at 46.88 µM (PfProRS; [2]): 11.4% | inhibition at 93.75 µM (PfProRS; [2]): 30.7% | inhibition at 187.5 µM (PfProRS; [2]): 62% | inhibition at 375 µM (PfProRS; [2]): 87.1% | inhibition at 750 µM (PfProRS; [2]): 99.8%

COc1ccc(Cl)cc1C(=O)NCCc1ccc(S(=O)(=O)NC(=O)NC2CCCCC2)cc1 [glyburide]
IC50 (HsProRS): > 700 µM | inhibition at 0.73 µM (HsProRS; [1]): 0.05% | inhibition at 1.46 µM (HsProRS; [1]): 0.03% | inhibition at 2.93 µM (HsProRS; [1]): -0.04% | inhibition at 5.86 µM (HsProRS; [1]): 0.29% | inhibition at 11.72 µM (HsProRS; [1]): 0.01% | inhibition at 23.44 µM (HsProRS; [1]): 0.12% | inhibition at 46.88 µM (HsProRS; [1]): 0.36% | inhibition at 93.75 µM (HsProRS; [1]): 1.41% | inhibition at 187.5 µM (HsProRS; [1]): 4.93% | inhibition at 375 µM (HsProRS; [1]): 15.1% | inhibition at 750 µM (HsProRS; [1]): 36.1% | inhibitory activity for HsProRS (HsProRS; up to the limit of solubility (>1 mM)): < 40% | IC50 (PfProRS; PfProRS IC50, 75 nM ProRS, 60 μM proline, 6 μM ATP, 400 μg/mL yeast tRNA, 2 h 37 °C): 34 µM | inhibition at 0.73 µM (PfProRS; [2]): 1.32% | inhibition at 1.46 µM (PfProRS; [2]): 1.82% | inhibition at 2.93 µM (PfProRS; [2]): 6.24% | inhibition at 5.86 µM (PfProRS; [2]): 12.4% | inhibition at 11.72 µM (PfProRS; [2]): 23.8% | inhibition at 23.44 µM (PfProRS; [2]): 39.7% | inhibition at 46.88 µM (PfProRS; [2]): 60% | inhibition at 93.75 µM (PfProRS; [2]): 81.4% | inhibition at 187.5 µM (PfProRS; [2]): 87% | inhibition at 375 µM (PfProRS; [2]): 94% | inhibition at 750 µM (PfProRS; [2]): 102%

CCCc1nc2c(C)cc(-c3nc4ccccc4n3C)cc2n1Cc1ccc(-c2ccccc2C(=O)O)cc1 [telmisartan]
inhibition at 0.73 µM (HsProRS; [1]): 0.44% | inhibition at 1.46 µM (HsProRS; [1]): 0.05% | inhibition at 2.93 µM (HsProRS; [1]): 0.04% | inhibition at 5.86 µM (HsProRS; [1]): -0.1% | inhibition at 11.72 µM (HsProRS; [1]): 0.01% | inhibition at 23.44 µM (HsProRS; [1]): 0% | inhibition at 46.88 µM (HsProRS; [1]): -0.02% | inhibition at 93.75 µM (HsProRS; [1]): 0.37% | inhibition at 187.5 µM (HsProRS; [1]): 4.23% | inhibition at 375 µM (HsProRS; [1]): 0.25% | inhibition at 750 µM (HsProRS; [1]): 0.58% | inhibition at 0.73 µM (PfProRS; [2]): -0.36% | inhibition at 1.46 µM (PfProRS; [2]): -0.06% | inhibition at 2.93 µM (PfProRS; [2]): -0.17% | inhibition at 5.86 µM (PfProRS; [2]): -0.08% | inhibition at 11.72 µM (PfProRS; [2]): 2.19% | inhibition at 23.44 µM (PfProRS; [2]): 3.94% | inhibition at 46.88 µM (PfProRS; [2]): 13.4% | inhibition at 93.75 µM (PfProRS; [2]): 48.8% | inhibition at 187.5 µM (PfProRS; [2]): 80.8% | inhibition at 375 µM (PfProRS; [2]): 15.5% | inhibition at 750 µM (PfProRS; [2]): 11.8%
